For 14 compounds, TGI and GI50 results are on record in PubChem BioAssay (NCI).

In general, TGI refers to the concentration at which net growth stops. As usually defined, the GI50 is the concentration at which growth is held to half of that of the control.

Molecules are shown by their SMILES. Several values for one entry are separate records, joined by “and”; a condition that tells them apart may be missing. Equal values may be shown once.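 Five concentrations, 48 hours, 96-well plates. GI50: concentration for 50% inhibition of growth. At the TGI there is no net growth.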

Test systems include HL-60(TB) leukemia; SK-OV-3 ovarian; OVCAR-8 ovarian; HCT-116 colon; CAKI-1 renal; 786-0 renal; UACC-62 melanoma; A498 renal; RPMI-8226 leukemia.
What all share (assay): DTP human tumour cell line panel, 48 h

Turning to `CC1CCC2c3c([nH]c4ccccc34)C3C(=O)N(c4ccccc4)C(=O)C3C2C1` (stereo not drawn), the total growth inhibition concentration (TGI) is greater than 250 µM in the assay with HL-60(TB) leukemia; 28.5 µM and 99.6 µM with SK-OV-3 ovarian; greater than 250 µM in the assay on OVCAR-8 ovarian; greater than 250 µM with HCT-116 colon; greater than 250 µM in the assay with CAKI-1 renal; 40.6 µM and > 250 µM in the assay with 786-0 renal. Moreover, in the assay on UACC-62 melanoma, the total growth inhibition concentration (TGI) is 82.2 µM and > 250 µM. Moreover, the GI50 is 13.2 µM with SK-OV-3 ovarian, greater than 250 µM in the assay with OVCAR-8 ovarian, 77.6 µM with 786-0 renal and 22.7 µM in the assay on UACC-62 melanoma.

With `O=S(=O)(Cc1ccccc1)SCc1ccccc1`, the TGI in the assay with HL-60(TB) leukemia was 21.5 µM; in the assay on SK-OV-3 ovarian it was 97.3 µM; in the assay on OVCAR-8 ovarian, 28.8 µM; in the assay on HCT-116 colon it was 35.4 µM; with A498 renal, 73.6 µM; in the assay on CAKI-1 renal, greater than 86.2 µM. Besides, the values for the total growth inhibition concentration (TGI) with 786-0 renal, in the assay on RPMI-8226 leukemia and in the assay with UACC-62 melanoma were 51.5 µM, 61.6 µM and 55.8 µM, respectively.

As for `CC1=C(C(=O)CC(=O)C(=O)Nc2ccccc2C)Sc2ccccc2N1`, the total growth inhibition concentration (TGI) was greater than 100 µM with HL-60(TB) leukemia; greater than 100 µM in the assay with SK-OV-3 ovarian; greater than 100 µM in the assay with OVCAR-8 ovarian; greater than 55.8 µM with HCT-116 colon; greater than 100 µM in the assay with A498 renal; greater than 100 µM in the assay on CAKI-1 renal. For the same compound, the values for the total growth inhibition concentration (TGI) in the assay with 786-0 renal, with RPMI-8226 leukemia and in the assay with UACC-62 melanoma were greater than 69.1 µM, greater than 65.5 µM and greater than 100 µM, respectively.

`CC(=O)c1c(O)c2c([nH]c1=O)CCCC2`: the TGI was greater than 100 µM in the assay on HL-60(TB) leukemia; 48.5 µM in the assay on SK-OV-3 ovarian; greater than 100 µM with OVCAR-8 ovarian; greater than 100 µM in the assay with CAKI-1 renal; greater than 100 µM in the assay on 786-0 renal; 43.3 µM with UACC-62 melanoma.

As for `O=C(Nc1cccc(-n2cc(-c3ccncc3)c(-c3ccc(O)c(Cl)c3)n2)c1)Nc1ccc(Cl)c(Cl)c1`, the GI50 is 2.71 µM in the assay on HL-60(TB) leukemia; 3.43 µM in the assay on SK-OV-3 ovarian; 1.65 µM with OVCAR-8 ovarian; 1.83 µM in the assay with HCT-116 colon; 1.95 µM in the assay on A498 renal; 1.58 µM with 786-0 renal. Also, the figures for the GI50 with RPMI-8226 leukemia and in the assay with UACC-62 melanoma were 1.49 µM and 1.99 µM, respectively. The TGI with HL-60(TB) leukemia was 7.02 µM; in the assay with SK-OV-3 ovarian, greater than 100 µM; with OVCAR-8 ovarian, 5.61 µM; in the assay on HCT-116 colon, 5.33 µM; in the assay with A498 renal, 7.01 µM; with 786-0 renal, 7.12 µM. Further, the concentration for total growth inhibition (TGI) with RPMI-8226 leukemia stood at 4.54 µM; with UACC-62 melanoma, 4.94 µM.

With `O=C(Nc1ccc(Br)cc1)Nc1cccc(Br)c1`, the GI50 is 39.4 µM in the assay with SK-OV-3 ovarian, 4.81 µM in the assay with A498 renal, greater than 100 µM in the assay on CAKI-1 renal and 34.5 µM in the assay on 786-0 renal. Also, the TGI with SK-OV-3 ovarian, in the assay with A498 renal, with CAKI-1 renal and with 786-0 renal was greater than 100 µM throughout.

`O=C(O)C1=C(C(=O)O)Oc2ccccc2O1`: the TGI in the assay on HL-60(TB) leukemia, in the assay with SK-OV-3 ovarian, in the assay on OVCAR-8 ovarian, with HCT-116 colon, in the assay on A498 renal and in the assay with CAKI-1 renal was greater than 100 µM throughout. For the same compound, the TGI with 786-0 renal and in the assay on UACC-62 melanoma was greater than 100 µM throughout.

Regarding `C/C(CC(=O)Nc1cccc(Cl)c1C)=N\N=C(N)N`, the TGI in the assay on HL-60(TB) leukemia, in the assay with SK-OV-3 ovarian, with OVCAR-8 ovarian, in the assay on HCT-116 colon, with A498 renal and in the assay with CAKI-1 renal was greater than 100 µM each time. The TGI in the assay with 786-0 renal, in the assay with RPMI-8226 leukemia and in the assay on UACC-62 melanoma was greater than 100 µM in each case.

In the case of `NNC(=O)N/N=C1\CNC(=O)C(=O)C1c1nc2ccccc2s1` (stereo not drawn), the TGI in the assay on HL-60(TB) leukemia, in the assay with SK-OV-3 ovarian, in the assay on OVCAR-8 ovarian, in the assay with HCT-116 colon, in the assay on A498 renal and in the assay on CAKI-1 renal was greater than 100 µM each time. Besides, the TGI in the assay with 786-0 renal, in the assay on RPMI-8226 leukemia and in the assay on UACC-62 melanoma was greater than 100 µM in each case.

For `CN(C)CCNC(=O)c1cccc2cc3ccc4ccccc4c3nc12`, the TGI in the assay on HL-60(TB) leukemia worked out at 0.27 µM; in the assay with SK-OV-3 ovarian, 0.679 µM; in the assay on OVCAR-8 ovarian, 0.316 µM; in the assay on HCT-116 colon it was 1.05 µM; with A498 renal it was 0.0693 µM; in the assay on CAKI-1 renal it was 2.14 µM. For the same compound, the TGI with 786-0 renal came out at 1.37 µM; in the assay on RPMI-8226 leukemia, 0.527 µM; in the assay on UACC-62 melanoma it was 0.23 µM.

Consider `Nc1nc(-c2ccccc2)cc(-c2cc(Cl)ccc2O)n1`, for which the TGI with HL-60(TB) leukemia was greater than 100 µM; with SK-OV-3 ovarian, 77.8 µM; in the assay on OVCAR-8 ovarian, greater than 100 µM; in the assay with HCT-116 colon it was greater than 100 µM; in the assay with A498 renal, greater than 100 µM; in the assay with CAKI-1 renal, greater than 100 µM. For the same compound, the TGI in the assay with 786-0 renal, with RPMI-8226 leukemia and in the assay with UACC-62 melanoma was greater than 100 µM throughout.

For `O=C1c2ccoc2C(=O)c2oc(=O)ccc21`, the total growth inhibition concentration (TGI) in the assay with HL-60(TB) leukemia is 6.8 µM; in the assay on SK-OV-3 ovarian, greater than 57.9 µM; with OVCAR-8 ovarian it was 14.9 µM; with HCT-116 colon, 10.3 µM; in the assay with A498 renal, greater than 85.9 µM; in the assay on CAKI-1 renal it was greater than 62.2 µM. Further, the TGI in the assay with 786-0 renal is 30.8 µM; with RPMI-8226 leukemia, 22.2 µM; in the assay on UACC-62 melanoma, 31.5 µM.

As to `CC(C)=CC(=O)CC(=O)C(=O)NCCNC(=O)C(=O)CC(=O)C=C(C)C`, the TGI in the assay on SK-OV-3 ovarian, in the assay with OVCAR-8 ovarian, in the assay on HCT-116 colon, with A498 renal, in the assay with CAKI-1 renal and in the assay on 786-0 renal was greater than 50 µM throughout. For the same compound, the TGI in the assay with RPMI-8226 leukemia and in the assay on UACC-62 melanoma was greater than 50 µM in each case.

As for `c1ccc2c(c1)[O][Sn][O]2`, the GI50 in the assay with HL-60(TB) leukemia is 1.55 µg/mL; with SK-OV-3 ovarian it was greater than 150 µg/mL; with OVCAR-8 ovarian, 45.3 µg/mL; with HCT-116 colon, 19.8 µg/mL; in the assay on A498 renal, 41.2 µg/mL; in the assay on CAKI-1 renal, 30.2 µg/mL. Further, the GI50 with 786-0 renal is 23.6 µg/mL; in the assay on RPMI-8226 leukemia, 7.54 µg/mL; in the assay on UACC-62 melanoma it was 35.5 µg/mL. Moreover, the total growth inhibition concentration (TGI) in the assay on HL-60(TB) leukemia is 6.37 µg/mL; in the assay on SK-OV-3 ovarian it was greater than 150 µg/mL; in the assay with OVCAR-8 ovarian, greater than 150 µg/mL; in the assay with HCT-116 colon, greater than 150 µg/mL; in the assay with A498 renal, greater than 150 µg/mL; with CAKI-1 renal it was greater than 150 µg/mL. For the same compound, the concentration for total growth inhibition (TGI) with 786-0 renal, with RPMI-8226 leukemia and in the assay with UACC-62 melanoma was greater than 150 µg/mL each time.
